The test deals with T1, indoleamine 2, 3-dioxygenase (IDO1) (Homo sapiens, UniProt P14902).
T1 construct: human peripheral blood mononuclear cells (PBMC) (PB003F; host or cells: human PBMC stimulated with IFN-gamma and LPS
The test is described as follows: PBMC IDO1 assay (kynurenine detection via mass spectrometry). Type of test: cell-based. As to conditions: human PBMC stimulated with IFN-γ and LPS, 2 days, kynurenine by mass spectrometry; read-out: IDO1 PBMC pIC50 (converted). As to the method:
Compounds of the present invention were tested via high-throughput cellular assays utilizing detection of kynurenine via mass spectrometry and cytotoxicity as end-points. For the mass spectrometry and cytotoxicity assays, human peripheral blood mononuclear cells (PBMC) (PB003F; AIICells®, Alameda, Calif.) were stimulated with human interferon-γ (IFN-γ) (Sigma-Aldrich Corporation, St. Louis, Mo.) and lipopolysaccharide from Salmonella minnesota (LPS) (Invivogen, San Diego, Calif.) to induce the expression of indoleamine 2, 3-dioxygenase (IDO1). Compounds with IDO1 inhibitory properties decreased the amount of kynurenine produced by the cells via the tryptophan catabolic pathway. Cellular toxicity due to the effect of compound treatment was measured using CellTiter-Glo® reagent (CTG) (Promega Corporation, Madison, Wis.), which is based on luminescent detection of ATP, an indicator of metabolically active cells.
In preparation for the assays, test compounds were serially diluted 3-fold in DMSO from a typical top concentration of 5 mM and plated at 0.5 μL in 384-well, polystyrene, clear bottom, tissue culture treated plates with lids (Greiner Bio-One, Kremsmunster, Austria) to generate 11-point dose response curves. Low control wells (0% kynurenine or 100% cytotoxicity) contained either 0.5 μL of DMSO in the presence of unstimulated (-IFN-γ/-LPS) PBMCs for the mass spectrometry assay or 0.5 μL of DMSO in the absence of cells for the cytotoxicity assay, and high control wells (100% kynurenine or 0% cytotoxicity) contained 0.5 μL of DMSO in the presence of stimulated (+IFN-γ/+LPS) PBMCs for both the mass spectrometry and cytotoxicity assays.
Frozen stocks of PBMCs were washed and recovered in RPMI 1640 medium (Thermo Fisher Scientific, Inc., Waltham, Mass.) supplemented with 10% v/v heat-inactivated fetal bovine serum (FBS) (Thermo Fisher Scientific, Inc., Waltham, Mass.), and 1× penicillin-streptomycin antibiotic solution (Thermo Fisher Scientific, Inc., Waltham, Mass.). The cells were diluted to 1,000,000 cells/mL in the supplemented RPMI 1640 medium. 50 μL of either the cell suspension, for the mass spectrometry assay, or medium alone, for the cytotoxicity assay, were added to the low control wells, on the previously prepared 384-well compound plates, resulting in 50,000 cells/well or 0 cells/well respectively. IFN-γ and LPS were added to the remaining cell suspension at final concentrations of 100 ng/ml and 50 ng/ml respectively, and 50 μL of the stimulated cells were added to all remaining wells on the 384-well compound plates. The plates, with lids, were then placed in a 37° C., 5% CO2 humidified incubator for 2 days.
Following incubation, the 384-well plates were removed from the incubator and allowed to equilibrate to room temperature for 30 minutes. For the cytotoxicity assay, CellTiter-Glo® was prepared according to the manufacturer's instructions, and 40 μL were added to each plate well. After a twenty minute incubation at room temperature, luminescence was read on an EnVision® Multilabel Reader (PerkinElmer Inc., Waltham, Mass.). For the mass spectrometry assay, 10 μL of supernatant from each well of the compound-treated plates were added to 40 μL of acetonitrile, containing 10 μM of an internal standard for normalization, in 384-well, polypropylene, V-bottom plates (Greiner Bio-One, Kremsmunster, Austria) to extract the organic analytes. Following centrifugation at 2000 rpm for 10 minutes, 10 μL from each well of the acetonitrile extraction plates were added to 90 μL of sterile, distilled H2O in 384-well, polypropylene, V-bottom plates for analysis of kynurenine and the internal standard on the RapidFire 300 (Agilent Technologies, Santa Clara, Calif.) and 4000 QTRAP MS (SCIEX, Framingham, Mass.). MS data were integrated using Agilent Technologies' RapidFire Integrator software, and data were normalized for analysis as a ratio of kynurenine to the internal standard. […]

T1 sequence (P14902 whole entry): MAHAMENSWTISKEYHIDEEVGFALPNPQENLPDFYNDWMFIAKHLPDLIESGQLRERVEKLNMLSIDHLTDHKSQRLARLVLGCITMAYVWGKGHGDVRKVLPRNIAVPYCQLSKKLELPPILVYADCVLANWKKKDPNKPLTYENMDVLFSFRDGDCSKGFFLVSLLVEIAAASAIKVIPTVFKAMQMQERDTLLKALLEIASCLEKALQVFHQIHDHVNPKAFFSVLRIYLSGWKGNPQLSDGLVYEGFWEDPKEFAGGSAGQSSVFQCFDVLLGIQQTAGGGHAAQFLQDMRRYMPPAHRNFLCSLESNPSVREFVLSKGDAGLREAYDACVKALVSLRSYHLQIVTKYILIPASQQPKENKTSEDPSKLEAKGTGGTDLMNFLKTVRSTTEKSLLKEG

For `COc1ccc([C@H](CC2CCN(C(=O)C(F)(F)c3ccccc3)CC2)NC(=O)c2ccc(Cl)s2)cn1` [Example 43, (S)-5-chloro-N-(2-(1-(2,2-difluoro-2-phenylacetyl)piperidin-4-yl)-1-(6-methoxypyridin-3-yl)ethyl)thiophene-2-carboxamide], the IC50 is 1 nM.

With `CCOC(=O)N1CCC(CC(NC(=O)c2ccc(Cl)s2)C2CC2)CC1` (stereo not drawn) [Example 7, ethyl 4-(2-(5-chlorothiophene-2-carboxamido)-2-cyclopropylethyl)piperidine-1-carboxylate], the IC50 is 6.31 nM.

Regarding `CC(C)(C)OC(=O)N1CCC(C[C@@H](NC(=O)c2ccc(Cl)s2)C2CC2)CC1` [Example 214, (R)-tert-butyl 4-(2-(5-chlorothiophene-2-carboxamido)-2-cyclopropylethyl)piperidine-1-carboxylate], the IC50 is 398 nM.

Take `COc1ccc(C(=O)N[C@@H](CC2CCN(C(=O)OC(C)(C)C)CC2)c2ccccc2)cn1` [Example 123, (S)-tert-butyl 4-(2-(6-methoxynicotinamido)-2-phenylethyl)piperidine-1-carboxylate]: the IC50 was 39.8 nM.

Take `Cc1ccc(C(=O)NC(CC2CCN(C(=O)OC(C)(C)C)CC2)c2ccccc2)cn1` (stereo not drawn) [Example 217, tert-butyl 4-(2-(6-methylnicotinamido)-2-phenylethyl)piperidine-1-carboxylate]: the IC50 is 501 nM.

On to `COc1ccc(C(=O)NC(CC2CCN(C(=O)OC(C)(C)C)CC2)c2ccccc2)cc1` (stereo not drawn) [Example 143, tert-butyl 4-(2-(4-methoxybenzamido)-2-phenylethyl)piperidine-1-carboxylate], for which the IC50 was 79.4 nM.

With `CCc1ccc(C(=O)NC(CC(C)C)CC2CCN(C(=O)OC(C)(C)C)CC2)s1` (stereo not drawn) [Example 60, tert-butyl 4-(2-(5-ethylthiophene-2-carboxamido)-4-methylpentyl)piperidine-1-carboxylate], the IC50 is 12.6 nM.

Take `COc1ccc([C@H](CC2CCN(C(=O)OC(C)(C)C)CC2)NC(=O)c2ccc(F)s2)cn1` [Example 25, tert-butyl (S)-4-(2-(5-fluorothiophene-2-carboxamido)-2-(6-methoxypyridin-3-yl)ethyl)piperidine-1-carboxylate]: the IC50 was 3.16 nM.

As to `Cc1ccc(C(=O)NC(CC2CCN(C(=O)OC(C)(C)C)CC2)c2ccccc2)s1` (stereo not drawn) [Example 69, tert-butyl 4-(2-(5-methylthiophene-2-carboxamido)-2-phenylethyl)piperidine-1-carboxylate], the IC50 is 15.8 nM.

On to `CN(C)c1nnc(C(CC2CCN(C(=O)OC(C)(C)C)CC2)NC(=O)c2ccc(Cl)s2)o1` (stereo not drawn) [Example 73, tert-butyl 4-(2-(5-chlorothiophene-2-carboxamido)-2-(5-(dimethylamino)-1,3,4-oxadiazol-2-yl)ethyl)piperidine-1-carboxylate], for which the IC50 was 15.8 nM.

Turning to `CC(C)(C)OC(=O)N1CCC(CC(NC(=O)c2ccc(Br)s2)C2CCCCC2)CC1` (stereo not drawn) [Example 31, tert-butyl 4-(2-(5-bromothiophene-2-carboxamido)-2-cyclohexylethyl)piperidine-1-carboxylate], the IC50 is 7.94 nM.

On to `COc1ccc([C@H](CC2CCN(C(=O)OC(C)(C)C)CC2)NC(=O)c2ccc(Cl)s2)cn1` [Example 16, tert-butyl (S)-4-(2-(5-chlorothiophene-2-carboxamido)-2-(6-methoxypyridin-3-yl)ethyl)piperidine-1-carboxylate], for which the IC50 is 0.794 nM.

On to `CCc1ccc(C(=O)NC(CC2CCN(C(=O)OC(C)(C)C)CC2)C2CCCC2)s1` (stereo not drawn) [Example 78, tert-butyl 4-(2-cyclopentyl-2-(5-ethylthiophene-2-carboxamido)ethyl)piperidine-1-carboxylate], for which the IC50 was 15.8 nM.

In the case of `COc1ccc(C(CC2CCN(C(=O)OC(C)(C)C)CC2)NC(=O)c2ccc(F)cc2)cn1` (stereo not drawn) [Example 54, tert-butyl 4-(2-(4-fluorobenzamido)-2-(6-methoxypyridin-3-yl)ethyl)piperidine-1-carboxylate], the IC50 was 12.6 nM.

As for `O=C(NC(CC1CCN(S(=O)(=O)C2CCCC2)CC1)c1ccccc1)c1ccc(Cl)cc1` (stereo not drawn) [Example 193, 4-chloro-N-(2-(1-(cyclopentylsulfonyl)piperidin-4-yl)-1-phenylethyl)benzamide], the IC50 is 200 nM.

Regarding `CCOC(=O)N1CCC(CC(NC(=O)c2ccc(Cl)cc2)c2ccccc2)CC1` (stereo not drawn) [Example 102, ethyl 4-(2-(4-chlorobenzamido)-2-phenylethyl)piperidine-1-carboxylate], the IC50 is 25.1 nM.

On to `COCCOc1ccc(C(CC2CCN(C(=O)OC(C)(C)C)CC2)NC(=O)c2ccc(F)cc2)cn1` (stereo not drawn) [Example 202, tert-butyl 4-(2-(4-fluorobenzamido)-2-(6-(2-methoxyethoxy)pyridin-3-yl)ethyl)piperidine-1-carboxylate], for which the IC50 was 316 nM.

As for `Cc1ncc(C(=O)NC(CC2CCN(C(=O)OC(C)(C)C)CC2)c2ccccc2)s1` (stereo not drawn) [Example 191, tert-butyl 4-(2-(2-methylthiazole-5-carboxamido)-2-phenylethyl)piperidine-1-carboxylate], the IC50 is 200 nM.

`CCN(CC)c1ccc(C(CC2CCN(C(=O)OC(C)(C)C)CC2)NC(=O)c2ccc(F)cc2)cn1` (stereo not drawn) [Example 122, tert-butyl 4-(2-(6-(diethylamino)pyridin-3-yl)-2-(4-fluorobenzamido)ethyl)piperidine-1-carboxylate]: the IC50 was 39.8 nM.

As to `Cc1ccc(C(=O)NC(CC2CCN(C(=O)OC(C)(C)C)CC2)c2ccccc2)o1` (stereo not drawn) [Example 204, tert-butyl 4-(2-(5-methylfuran-2-carboxamido)-2-phenylethyl)piperidine-1-carboxylate], the IC50 is 316 nM.

Consider `CC(C)(C)OC(=O)N1CCC(CC(NC(=O)c2ccccc2)c2ccccc2)CC1` (stereo not drawn) [Example 138, tert-butyl 4-(2-benzamido-2-phenylethyl)piperidine-1-carboxylate], for which the IC50 was 63.1 nM.

`Cc1ccc(C(=O)NC(CC2CCN(C(=O)C(F)(F)F)CC2)c2ccccc2)s1` (stereo not drawn) [Example 94, 5-methyl-N-(1-phenyl-2-(1-(2,2,2-trifluoroacetyl)piperidin-4-yl)ethyl)thiophene-2-carboxamide]: the IC50 is 20 nM.

Consider `CCc1ccc(C(=O)N[C@@H](CC2CCN(C(=O)OC(C)(C)C)CC2)c2ccccc2)s1` [Example 30, tert-butyl (S)-4-(2-(5-ethylthiophene-2-carboxamido)-2-phenylethyl)piperidine-1-carboxylate], for which the IC50 was 10 nM.

For the molecule `CC(=O)N1CCC(CC(NC(=O)c2ccc(Cl)cc2)c2ccccc2)CC1` (stereo not drawn) [Example 222, N-(2-(1-acetylpiperidin-4-yl)-1-phenylethyl)-4-chlorobenzamide], the IC50 is 501 nM.

Take `CC(C)(C)OC(=O)N1CCC(CC(NC(=O)c2ccc(F)s2)c2ccccc2)CC1` (stereo not drawn) [Example 58, tert-butyl 4-(2-(5-fluorothiophene-2-carboxamido)-2-phenylethyl)piperidine-1-carboxylate]: the IC50 was 12.6 nM.

For the molecule `CCc1ccc(C(=O)N[C@@H](CC2CCN(C(=O)OC(C)C)CC2)c2ccccc2)s1` [Example 33, isopropyl (S)-4-(2-(5-ethylthiophene-2-carboxamido)-2-phenylethyl)piperidine-1-carboxylate], the IC50 was 7.94 nM.

Turning to `CC(C)CC(CC1CCN(C(=O)OC(C)(C)C)CC1)NC(=O)c1ccc(F)s1` (stereo not drawn) [Example 79, tert-butyl 4-(2-(5-fluorothiophene-2-carboxamido)-4-methylpentyl)piperidine-1-carboxylate], the IC50 is 15.8 nM.
